According to ChEMBL document CHEMBL6083204, “Synthesis of a celastrol derivative as a cancer stem cell inhibitor through regulation of the STAT3 pathway for treatment of ovarian cancer” (RSC Med Chem, 2024):
Activity calls are given as the source filed them. The calls are words filed in the database; no cut-off is given here.

Tests used:
[1] = molecular target: Signal transducer and activator of transcription 3 (Homo sapiens) (UniProt P40763); test: Inhibition of STAT3 in human A2780 cells assessed as downregulation of STAT3 phosphorylation at Tyr705 residue in nuclei at 0.2 uM incubated for 24 hrs by Hoechst33342 staining based immunofluorescence assay; type: cell-based
Sequence of Signal transducer and activator of transcription 3 (Homo sapiens) (P40763 whole entry): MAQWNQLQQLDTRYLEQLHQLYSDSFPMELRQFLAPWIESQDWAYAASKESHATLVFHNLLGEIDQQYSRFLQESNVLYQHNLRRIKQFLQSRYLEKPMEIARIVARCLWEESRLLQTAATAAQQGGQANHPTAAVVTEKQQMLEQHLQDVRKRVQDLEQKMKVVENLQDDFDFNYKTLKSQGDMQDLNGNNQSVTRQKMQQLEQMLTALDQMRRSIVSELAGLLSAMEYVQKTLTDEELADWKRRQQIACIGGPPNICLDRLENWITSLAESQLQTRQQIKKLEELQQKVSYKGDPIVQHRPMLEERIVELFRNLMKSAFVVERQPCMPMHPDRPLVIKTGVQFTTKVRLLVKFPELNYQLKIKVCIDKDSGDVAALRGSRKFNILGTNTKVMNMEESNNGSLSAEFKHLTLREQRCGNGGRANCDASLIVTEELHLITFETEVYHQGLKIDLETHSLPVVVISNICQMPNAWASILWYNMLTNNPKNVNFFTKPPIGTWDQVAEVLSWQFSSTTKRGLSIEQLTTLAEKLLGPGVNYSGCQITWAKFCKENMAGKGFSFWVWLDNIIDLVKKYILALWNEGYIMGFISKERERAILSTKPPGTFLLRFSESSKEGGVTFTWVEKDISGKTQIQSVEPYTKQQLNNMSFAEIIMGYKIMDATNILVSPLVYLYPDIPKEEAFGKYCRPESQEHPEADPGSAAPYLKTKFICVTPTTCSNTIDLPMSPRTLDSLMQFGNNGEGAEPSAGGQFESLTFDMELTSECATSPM

[2] = Toxicity in BALB/c mouse xenografted with human SK-OV-3 cells assessed as change in body weight at 2 to 5 mg/kg,ip administrated for 21 consecutive days; type: organism-based; settings: in vivo, dose 2-5 mg/kg
[3] = molecular target: Tyrosine-protein kinase JAK2 (Homo sapiens) (UniProt O60674); test: Inhibition of JAK2 in human SK-OV-3 cells assessed as downregulation of JAK2 phosphorylation at 0.1 to 0.4 uM incubated for 24 hrs by Western blotting analysis; type: cell-based; settings: dose 0.1-0.4 µM
Sequence of Tyrosine-protein kinase JAK2 (Homo sapiens) (O60674 whole entry): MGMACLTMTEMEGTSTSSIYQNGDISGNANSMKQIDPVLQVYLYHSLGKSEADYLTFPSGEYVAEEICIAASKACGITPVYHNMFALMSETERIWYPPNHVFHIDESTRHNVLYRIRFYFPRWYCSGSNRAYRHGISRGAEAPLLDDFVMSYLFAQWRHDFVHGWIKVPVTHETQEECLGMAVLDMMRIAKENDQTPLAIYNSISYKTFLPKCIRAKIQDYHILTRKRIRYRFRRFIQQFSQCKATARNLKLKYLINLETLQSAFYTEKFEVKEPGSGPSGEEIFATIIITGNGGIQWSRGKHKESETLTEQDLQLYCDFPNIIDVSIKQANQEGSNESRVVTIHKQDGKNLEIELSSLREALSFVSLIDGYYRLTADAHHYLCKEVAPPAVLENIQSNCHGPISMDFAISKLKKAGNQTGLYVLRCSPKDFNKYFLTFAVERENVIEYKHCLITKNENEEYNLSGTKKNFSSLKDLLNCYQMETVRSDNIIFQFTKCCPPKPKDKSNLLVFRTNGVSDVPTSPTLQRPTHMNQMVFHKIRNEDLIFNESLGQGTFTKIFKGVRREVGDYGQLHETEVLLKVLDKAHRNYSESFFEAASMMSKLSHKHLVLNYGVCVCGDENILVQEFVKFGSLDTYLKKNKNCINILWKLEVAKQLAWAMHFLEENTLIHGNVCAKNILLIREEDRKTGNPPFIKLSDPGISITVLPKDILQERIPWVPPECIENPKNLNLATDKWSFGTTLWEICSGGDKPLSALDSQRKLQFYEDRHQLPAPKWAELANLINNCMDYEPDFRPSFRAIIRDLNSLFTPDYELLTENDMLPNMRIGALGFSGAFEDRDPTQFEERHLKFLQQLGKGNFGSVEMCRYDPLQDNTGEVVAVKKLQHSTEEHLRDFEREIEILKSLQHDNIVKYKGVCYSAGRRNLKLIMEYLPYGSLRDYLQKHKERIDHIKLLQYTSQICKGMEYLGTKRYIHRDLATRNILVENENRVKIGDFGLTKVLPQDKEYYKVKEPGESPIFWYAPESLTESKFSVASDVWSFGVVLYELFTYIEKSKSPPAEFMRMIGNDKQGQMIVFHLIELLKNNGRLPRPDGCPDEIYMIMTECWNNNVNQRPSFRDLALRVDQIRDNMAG

A2780 [4] = test: Induction of cell cycle arrest in human A2780 cells assessed as accumulation of cells at S phase at 0.8 uM incubated for 24 hrs by BrdU staining based flow cytometry (reference value: 51.6 %); type: functional
SK-OV-3 [5] = test: Induction of ROS production in human SK-OV-3 cells assessed as increase in fluorescence intensity incubated for 24 hrs by DCFH-DA staining based flow cytometry; type: functional, cell-based
SK-OV-3 [6] = test: Induction of apoptosis in human SK-OV-3 cells assessed as increase in caspase-8 activity at 0.8 uM incubated for 24 hrs by flow cytometry (reference value: 2.5 %); type: functional
A2780 [7] = test: Induction of ROS production in human A2780 cells assessed as increase in fluorescence intensity incubated for 24 hrs by DCFH-DA staining based flow cytometry; type: functional, cell-based
[8] = molecular target: Signal transducer and activator of transcription 3 (Homo sapiens) (UniProt P40763); test: Inhibition of STAT3 in human SK-OV-3 cells assessed as downregulation of cytoplasmic STAT3 phosphorylation at Ser727 residue at 0.2 uM incubated for 24 hrs by Hoechst33342 staining based immunofluorescence assay; type: cell-based
[9] = molecular target: Tyrosine-protein kinase JAK1 (Homo sapiens) (UniProt P23458); test: Inhibition of JAK1 in human SK-OV-3 cells assessed as downregulation of JAK1 phosphorylation at 0.1 to 0.4 uM incubated for 24 hrs by Western blotting analysis; type: cell-based; settings: dose 0.1-0.4 µM
Sequence of Tyrosine-protein kinase JAK1 (Homo sapiens) (P23458 whole entry): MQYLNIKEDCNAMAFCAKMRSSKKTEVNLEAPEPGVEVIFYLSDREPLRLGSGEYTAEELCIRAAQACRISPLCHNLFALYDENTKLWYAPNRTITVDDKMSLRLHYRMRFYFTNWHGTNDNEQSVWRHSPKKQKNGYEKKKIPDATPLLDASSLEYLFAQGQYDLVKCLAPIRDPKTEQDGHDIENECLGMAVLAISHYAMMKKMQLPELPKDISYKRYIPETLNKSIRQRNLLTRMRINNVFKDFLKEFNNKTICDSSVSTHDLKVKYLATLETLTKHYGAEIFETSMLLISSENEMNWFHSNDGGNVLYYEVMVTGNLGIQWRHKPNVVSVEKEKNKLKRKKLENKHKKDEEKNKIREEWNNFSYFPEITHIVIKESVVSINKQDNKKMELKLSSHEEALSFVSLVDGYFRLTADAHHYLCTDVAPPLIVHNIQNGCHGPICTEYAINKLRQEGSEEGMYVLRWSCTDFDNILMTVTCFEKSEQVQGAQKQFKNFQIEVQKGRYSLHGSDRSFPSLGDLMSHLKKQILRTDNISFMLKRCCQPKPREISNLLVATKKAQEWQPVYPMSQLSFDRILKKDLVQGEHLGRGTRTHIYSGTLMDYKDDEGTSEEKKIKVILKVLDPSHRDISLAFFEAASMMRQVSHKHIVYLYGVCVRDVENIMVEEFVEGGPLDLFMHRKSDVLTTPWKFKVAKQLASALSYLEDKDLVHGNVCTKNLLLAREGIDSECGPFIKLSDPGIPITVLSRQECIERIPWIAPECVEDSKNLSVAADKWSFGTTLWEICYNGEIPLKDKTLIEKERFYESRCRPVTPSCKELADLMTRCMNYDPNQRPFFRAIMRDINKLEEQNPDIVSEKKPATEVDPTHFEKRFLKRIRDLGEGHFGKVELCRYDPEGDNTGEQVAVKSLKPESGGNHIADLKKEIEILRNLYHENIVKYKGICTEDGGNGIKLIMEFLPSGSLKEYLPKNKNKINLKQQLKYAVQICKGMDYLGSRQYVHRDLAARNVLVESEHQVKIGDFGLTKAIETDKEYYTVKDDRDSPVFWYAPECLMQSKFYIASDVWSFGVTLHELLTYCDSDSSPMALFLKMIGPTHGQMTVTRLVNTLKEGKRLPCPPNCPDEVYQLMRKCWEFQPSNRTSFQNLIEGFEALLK

SK-OV-3 [10] = test: Induction of cell cycle arrest in human SK-OV-3 cells assessed as accumulation of cells at G2/M phase at 0.2 uM incubated for 24 hrs by BrdU staining based flow cytometry (reference value: 6.3 %); type: functional
[11] = molecular target: Signal transducer and activator of transcription 3 (Homo sapiens) (UniProt P40763); test: Inhibition of STAT3 in human SK-OV-3 cells assessed as downregulation of Mcl-1 expression at 0.1 to 0.4 uM incubated for 24 hrs by Western blotting analysis; type: cell-based; settings: dose 0.1-0.4 µM
A2780 [12] = test: Antiproliferative activity against human A2780 cells assessed as inhibition of cell growth incubated for 72 hrs by MTT assay; type: functional, cell-based; settings: A2780, 72 h

inhibition [1]: Active
inhibition [3]: Active
inhibition [8]: Active; Showed Mild Inhibition Activity
inhibition [9]: Active
inhibition [11]: Active
IC50 (A2780 [12]): 140 nM
SMILES: CC1=C(O)C(=O)C=C2C1=CC=C1[C@@]2(C)CC[C@@]2(C)[C@@H]3C[C@](C)(C(=O)N4CCNCC4)CC[C@]3(C)CC[C@]12C
Activity [2]: Non-toxic
Activity (A2780 [4]): 6.2%
Activity (SK-OV-3 [5]): Dose-dependent-effect
Activity (SK-OV-3 [6]): 74.7%
Activity (A2780 [7]): Dose-dependent-effect
Activity (SK-OV-3 [10]): 6.7%
